Experiments:
[1] = system: adult Drosophila melanogaster; assay: Time to anoxic coma onset (locomotion failure) during acute hypoxia after volatilized drug treatment; assay type: in vivo; settings: adult sitter flies; single agent volatilized from 10 uL DMSO for 1 hr; 1 mM KT5823, 1 mM Cantharidin, 200 mM DCA, 10 mM 8-Bromo cGMP, 10 mM T-0156; argon displacement; Dunn's p<0.05
Protocol: Using both genetics and pharmacology, the roles and order of function of additional cGMP-dependent signaling molecules in modulating acute low-oxygen sensitivity of locomotory failure were examined. To do this, we imposed acute hypoxia (<0.2% O2 within 5 min) by displacing environmental oxygen with the inert gas argon and then measured time to failure of locomotion (anoxic coma), which can be observed in less than 2% atmospheric oxygen (Haddad, 2000). We also used a novel but reliable method of pharmacological volatilization as a means to manipulate, in vivo, the activity of target enzymes and molecules such as PKG. Flies were frozen immediately after each trial, and heads were dissected and examined for PKG activity, as an indicator for activity levels in the brain (Belay et al., 2007; Kaun et al., 2007b). Lastly, using adult flies we tested what has been previously shown in embryos and larva (Wingrove and O'Farrell, 1999), the effect of prolonged anoxia (6 hours) on animal survival, after a 24 hour recovery.
Ten flies (separated into males or females) from each of the three strains (rover [for^R], sitter [for^s] and for^s2) were selected and placed in three separate vials with food at least 24 hours before each experiment. At the time of the experiment, flies were emptied into 10 mL empty test vials covered with permeable sponge caps of equivalent thickness, allowing for consistent gas exchange. These test vials were then placed into a 600 mL beaker which was covered with parafilm, creating a closed chamber with an escape hole in the parafilm (1 cm diameter). The purpose of this hole is to allow the lighter normal air (compared to argon which is heavier) to escape from the top of the beaker. The parafilm top was punctured with a needle connected to a gas tank (by a plastic hose), through which the inert gas argon was expelled. Preliminary work was done with pure nitrogen, where no significant differences between the uses of the two gases were observed (data not shown).
The needle tip was fastened to the bottom of the beaker and inserted into a larger sponge of similar texture to the vial sponge caps to ensure that gas expelled from the needle was dispersed equally throughout the beaker. […]
The experiment required exposing the test vials with 10 flies in a vial within the container to pure argon gas expelled from the tank at a flow rate of 600 cc/min±5%. Time of behavioral failure was recorded by observing the fly undergo a seizure, which was quickly followed by an anoxic coma. […] The program recorded these times of failure for each individual fly within the vials and then computed an average failure time for each vial (each vial has 10 flies but gives an average value for N=1). […]

PKG = PKG enzyme activity assay on heads of treated flies; assay type: biochemical, Drosophila melanogaster; settings: heads of animals from FIG. 4a experiments; N=6 for each treatment; SNK
Protocol: PKG enzyme activity assays were conducted according to the procedure outlined in Kaun et al. (2007)(Kaun et al., 2007b). Adult Drosophila were decapitated and the heads were homogenized in 25 mM 1-1 Tris (pH 7.4), 1 mM 1-1 EDTA, 2 mM 1-1 EGTA, 5 mM 1-1 β-mercaptoethanol, 0.05% Triton X-100 and protease inhibitor solution (Roche Diagnostics). Following microcentrifugation for 5 min, the supernatant was removed and those supernatants containing equal amounts of total protein were examined for PKG enzyme activity. The reaction mixture contained the following substances: 40 mM 1-1 Tris-HCl (pH 7.4), 20 mM 1-1 magnesium acetate, 0.2 mM 1-1 [γ^32P]ATP (500-1000 c.p.m. pmol-1), 113 mg ml-1 heptapeptide (RKRSRAE), 3 mM 1-1 cGMP and a highly specific inhibitor of cAMP-dependent protein kinase. The next step of the procedure involved incubating the reaction mixtures at a temperature of 30° C. for 10 min, followed by ending the reaction by spotting 70 μl of the reaction mixture onto Whatman P-81 filters. To remove any unreacted [γ^32P]ATP, these spots were then soaked with 75 mM 1-1 H3PO4 for 5 min and washed three times with 75 mM 1-1 H3PO4. Before quantifying enzyme activity, filters were rinsed with 100% ethanol and air dried. To calculate PKG enzyme activity, counts were taken in a Wallac 1409 Liquid Scintillation Counter using universal scintillation cocktail (ICN). PKG activity was presented in the figures as pmol of ^32P incorporated into the substrate min-1 mg-1 protein.

NT-3 = settings: cited from earlier work
protein phosphatase = settings: cited from earlier work
[2] = biological target: T1, phosphodiesterase-5 (PDE-5) (Mus musculus, UniProt Q8CG03); settings: mice; 1.4-mg/kg intraperitoneal injections daily for 8 days; cited from earlier work
T1 construct: Sildenafil (Viagra) was administered to mice, 1.4-mg/kg intraperitoneal injections daily for 8 days; host or cells: mice in vivo (brain neurons under hypoxia)

SMILES	anoxic coma onset sensitivity (time to failure) vs sham control [1]	PKG enzyme activity levels in heads compared to sham control (PKG)	neurotrophin (NT-3) activity (NT-3)	nerve cell death (protein phosphatase)	neuron apoptosis during hypoxia [2]
Nc1nc2c(nc(Br)n2[C@@H]2O[C@@H]3COP(=O)(O)O[C@H]3[C@H]2O)c(=O)[nH]1 [8-Bromo cGMP, 8-Bromo-cGMP]	significant sensitivity to anoxic coma	significant effects compared to that of the sham control			
C[C@@]12C(=O)OC(=O)[C@]1(C)[C@H]1CC[C@@H]2O1 [Cantharidin]	significant resilience to anoxic coma	no significant effects on PKG enzyme activity levels			
COC(=O)[C@@]1(OC)C[C@H]2O[C@]1(C)n1c3ccccc3c3c4c(c5c6ccccc6n2c5c31)C(=O)N(C)C4 [KT5823]	significant resilience to anoxic coma	significant effects compared to that of the sham control	potentiation of NT-3		
C=C1[C@@H](O)[C@@H]2O[C@]3(CC[C@H](/C=C/[C@@H](C)[C@@H]4CC(C)=C[C@@]5(O[C@H](C[C@@](C)(O)C(=O)O)CC[C@H]5O)O4)O3)CC[C@H]2O[C@@H]1[C@@H](O)C[C@H](C)[C@H]1O[C@@]2(CCCCO2)CC[C@H]1C [Okadaic acid]				increase nerve cell death	
CCCc1nn(C)c2c(=O)[nH]c(-c3cc(S(=O)(=O)N4CCN(C)CC4)ccc3OCC)nc12 [Sildenafil, sildenafil]					reduces neuron apoptosis
COC(=O)c1c(-c2cc(OC)c(OC)c(OC)c2)c2ccnc(OCc3ncccn3)c2c(=O)n1Cc1ccnc(C)c1 [T-0156]	significant sensitivity to anoxic coma	significant effects compared to that of the sham control			

Source: patent US20150202219A1, “NEUROPROTECTION FROM BRAIN ANOXIA AND REPERFUSION INJURY DURING STROKE AND COMPOSITIONS OF PKG PATHWAY ACTIVATORS AND METHOD OF USE THEREOF” (Florida Atlantic University, priority 2010, published 2015)
